Results: patent US20070056361A1, “Partitioning gas tracer tests” (UNIVERSITY OF DELAWARE office of the Vice Provost for …, priority 2003, published 2007)
Like-named read-outs stand apart in the source and are kept apart here. Marks after values point to notes of the source that are not given here.

Key:
[1] = Henry's law constant from gas tracer tests in sand column wetted with landfill leachate; type: physicochemical
Experimental: Three trials were performed to determine KH for the leachate. The experimental procedures were modified slightly from those described above for distilled water. Here, the column was packed with dry sand, purged with nitrogen, and the leachate was flushed upward in the vertically-mounted column to displace the gas. Nitrogen was then injected into the top of the column to force the mobile water out of the column. This procedure allowed the column to be wetted with the leachate while under anaerobic conditions. Between experimental trials anaerobic conditions were maintained in the column to minimize reactions within the leachate that might alter its composition. The temperatures for the leachate tests ranged between 25.5-26.0° C.
The Henry's law constant was determined in each of the above tests using the tracer breakthrough curves and the known porosity and water saturation for the porous medium. Time moment analysis was used to determine the mean tracer velocities; Rf was computed from eq. 1; and using known n and Sw, KH was computed from eq. 3.
Three PGTT were conducted with landfill leachate to explore the influence of leachate composition on difluoromethane partitioning. The porosity and leachate saturation of the sand column were n=0.41 and Sw=0.17 respectively, while the average interstitial gas velocity used in the tracer tests was 25.2 m/day. […]

[2] = Henry's law constant from gas tracer tests in sand column wetted with distilled water; type: physicochemical; details: distilled water at 22.5-24.1° C., six trials, ± 95% confidence interval
Excerpt: The experimental procedure used to determine KH was similar to that reported in an earlier study (Deeds, N. E.; McKinney, D. C.; Pope, G. A.; Whitely Jr., G. A. Difluoromethane as partitioning tracer to estimate vadose water saturations. Journal of Environmental Engineering 1999, 125, 630-633). A jacketed glass column 60-cm long and 5-cm in diameter (Ace Glass, Inc., Vineland, N.J.) was packed with 50/70 silica sand (d50=0.26 mm, uniformity index=1.186; U.S. Silica, Ill.) underwater using distilled water. The column was positioned vertically, and suction was applied to the bottom of the column to drain water from the porous medium. […]
A water bath and pump were used to recirculate water in the glass jacket surrounding the porous medium to maintain fluid and gas temperatures between 22.5-24.1° C. during the experiments. […] Tracer concentrations in the gas samples were quantified with a gas chromatograph (Model 8610C, SRI Instruments, Torrance, Calif.): tracers were separated using mol-sieve and silica gel packed columns and then detected with a thermal conductivity (helium) or flame ionization detector (difluoromethane). […]
The Henry's law constant was determined in each of the above tests using the tracer breakthrough curves and the known porosity and water saturation for the porous medium. […]

[3] = measured at 25° C. (Worksafe Australia); cited from earlier work
[4] = clean water, Deeds et al. 1999; cited from earlier work
[5] = Henry's law constant in batch systems from 4° C. to 50° C.; type: physicochemical
Experimental: Difluoromethane was selected as the partitioning tracer, which partitions into water within the solid waste, while helium was selected as the conservative tracer. A key thermodynamic parameter necessary for interpretation of data from a PGTT is the Henry's law constant of the partitioning tracer. Laboratory tests were conducted in batch systems to determine the Henry's law constant for difluoromethane from 4° C. to 50° C., which covers the temperature range observed in our field tests. In addition, batch experiments were also conducted with filter paper wetted to different degrees to assess the ability of PGTT to measure water in small pores and sorbed to solid surfaces.

[6] = at 25° C., gas/water, cited from earlier work
[7] = for every 10° C. increase in temperature; cited from earlier work

SMILES: FCF [Difluoromethane]
- KH (Henry's law constant) ([1]; landfill leachate (Cherry Island Landfill), 25.5-26.0° C., three trials, ± 95% confidence interval): 0.57±0.09
- Increase of KH in leachate relative to distilled water ([1]; leachate vs distilled water, mean temperature about 2.5° C. higher): 20%
- KH (dimensionless Henry's law constant) [2]: 0.47^b
- KH (dimensionless Henry's law constant) ([2]; listed as difluoromethane): 0.47±0.07
- Log n-Octanol/Water Partition Coefficient [3]: 0.21^c
- KH (Henry's law constant) [4]: 0.59
- KH (Henry's law constant) ([5]; at 4° C.): 0.34
- KH (Henry's law constant) ([5]; at 50° C.): 0.99

SMILES: [He] [Helium]
- KH (dimensionless Henry's law constant) [6]: 106^a
- KH (dimensionless Henry's law constant) ([6]; listed as helium): ≈ 100

SMILES: CF [fluoromethane]
- Increase in KH with temperature [7]: approximately 20%
